Experimental data: patent US8148097B2, “Screening method for identification of compounds with calcium-independent phospholipase A2β (iPLA2β) modulating activity” (Washington University, priority 2005, dated 2012)

Molecular target: T1, iPLA2β (Cricetulus griseus, UniProt A0A3L7I2I8)
T1 construct: (His)6; made in house; host or cells: Sf9 insect cells (baculovirus)
T1 sequence (A0A3L7I2I8 1-752 isoform A0A3L7I2I8-2): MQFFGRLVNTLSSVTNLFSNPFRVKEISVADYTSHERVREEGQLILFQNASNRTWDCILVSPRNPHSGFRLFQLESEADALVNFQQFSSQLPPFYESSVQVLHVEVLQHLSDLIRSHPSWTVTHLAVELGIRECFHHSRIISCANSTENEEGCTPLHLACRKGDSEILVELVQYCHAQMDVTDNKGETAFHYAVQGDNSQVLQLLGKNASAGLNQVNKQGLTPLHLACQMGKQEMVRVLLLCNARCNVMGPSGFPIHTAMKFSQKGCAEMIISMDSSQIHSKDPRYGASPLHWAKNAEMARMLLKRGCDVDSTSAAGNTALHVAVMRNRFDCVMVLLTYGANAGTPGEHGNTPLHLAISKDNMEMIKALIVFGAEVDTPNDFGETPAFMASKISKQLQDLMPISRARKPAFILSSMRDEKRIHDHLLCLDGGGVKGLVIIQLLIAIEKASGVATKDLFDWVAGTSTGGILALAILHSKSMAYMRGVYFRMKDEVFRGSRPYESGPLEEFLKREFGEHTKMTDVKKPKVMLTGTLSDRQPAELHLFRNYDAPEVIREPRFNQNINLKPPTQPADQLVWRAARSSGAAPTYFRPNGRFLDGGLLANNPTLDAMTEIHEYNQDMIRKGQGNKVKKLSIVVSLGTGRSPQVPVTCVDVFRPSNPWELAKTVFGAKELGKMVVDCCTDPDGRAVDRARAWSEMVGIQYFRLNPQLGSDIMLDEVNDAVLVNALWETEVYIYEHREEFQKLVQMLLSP
Assay: iPLA2β phospholipase A2 activity with radiolabeled POPC substrate
Format: biochemical
Settings: oleoyl-CoA 10 μM, [14C]-POPC substrate, FIG. 11I
Method: FIG. 9—Calcium-independent iPLA2β was pre-incubated in the presence of Ca^2+ (1 mM) or Ca^2+-CaM (3 μg) on ice before addition to 95 μM POPC containing either 5 mol % [1-^14C]-POPC or [1-^14C]-palmitoyl-CoA in 100 mM Tris-HCl, pH 7.2. After incubation at 37° C. for 3 min, reactions were terminated by vortexing in the presence of butanol and released radiolabeled fatty acids were resolved by TLC and quantitated by liquid scintillation spectrometry as described in Experimental Procedures.
FIGS. 11A-11D—Purified iPLA2β+/−Ca^2+/CaM was incubated with POPC/BODIPY-PC (95:5 mol %) host vesicles for 2 min at 37° C. with the indicated concentrations of guest oleoyl-CoA. Relative fluorescence was recorded utilizing 495 nm excitation and 515 nm emission wavelengths as described in Experimental Procedures. […] Radiolabeled fatty acid was extracted into butanol, resolved by TLC, and quantified by scintillation spectrometry as described in Experimental Procedures.
Phospholipase A2 and Acyl-CoA Hydrolase Enzymatic Assays—Purified recombinant iPLA2β(His)6 (peptide disclosed as SEQ ID NO: 4) (0.1-1 μg) was incubated with radiolabeled phospholipid or acyl-CoA in 25 mM Tris-HCl, pH 7.2 containing 1 mM EGTA (200 μl final volume) for 1-2 mm at 37° C. […] Incorporation of acyl-CoA into the POPC/DOPS vesicles employed was determined as described previously (64). […]

inhibition at 10 µM (no CaM, read-out: inhibition of iPLA2β activity by oleoyl-CoA alone): 20% | activity of CaM-inhibited iPLA2β, % of the activity observed with oleoyl-CoA alone: approximately 75%
SMILES: CCCCCCCC/C=C\CCCCCCCC(=O)SCCNC(=O)CCNC(=O)[C@H](O)C(C)(C)COP(=O)(O)OP(=O)(O)OC[C@H]1O[C@@H](n2cnc3c(N)ncnc32)[C@H](O)[C@@H]1OP(=O)(O)O [oleoyl-CoA]
